≈ marks a conversion by molar mass, not a printed value. Calls of active or inactive are those of the source. Some results are limits rather than exact numbers.

Type in all cases: functional
In experiment [1] the test system is Streptococcus sanguinis. The experiment in a line: Antimicrobial activity against Streptococcus sanguinis NCTC 9811 after 20 hrs by plate dilution method. The conditions noted are these: NCTC 9811, 20 h.
For experiment [2], the system named is Streptococcus mutans. The experiment in a line: Antimicrobial activity against Streptococcus mutans KCTC 3065 at 50 ug/ml after 20 hrs by disk diffusion method. The conditions noted are these: for zone of inhibition at 50 µg/mL: KCTC 3065, 20 h, read-out: IZ. Background: In agar diffusion tests the substance spreads into inoculated agar from a disc or well.

Experiment [3] relates to Streptococcus mutans. The experiment in a line: Antimicrobial activity against Streptococcus mutans KCTC 3065 at 600 ug/ml after 20 hrs by disk diffusion method. The settings on record: for zone of inhibition at 600 µg/mL: KCTC 3065, 20 h, read-out: IZ.
Experiment [4] deals with Streptococcus sanguinis. The experiment in a line: Antimicrobial activity against Streptococcus sanguinis NCTC 9811 assessed as total bacterial adherence inhibition.
For experiment [5], the system named is Streptococcus mutans. The experiment in a line: Antimicrobial activity against Streptococcus mutans KCTC 3065 assessed as total bacterial adherence inhibition.
The test system of experiment [6] is Streptococcus sanguinis. Description: Antimicrobial activity against Streptococcus sanguinis NCTC 9811 at 200 ug/ml after 20 hrs by disk diffusion method. The settings on record: for zone of inhibition at 200 µg/mL: NCTC 9811, 20 h, read-out: IZ.
Experiment [7] concerns Streptococcus mutans. Description: Antimicrobial activity against Streptococcus mutans KCTC 3065 after 20 hrs by plate dilution method. The conditions noted are these: KCTC 3065, 20 h.
In experiment [8] the test system is Streptococcus mutans. Description: Antimicrobial activity against Streptococcus mutans KCTC 3065 at 400 ug/ml after 20 hrs by disk diffusion method. The conditions noted are these: for zone of inhibition at 400 µg/mL: KCTC 3065, 20 h, read-out: IZ.
Experiment [9] has as its system Streptococcus sanguinis. The experiment in a line: Antimicrobial activity against Streptococcus sanguinis NCTC 9811 at 50 ug/ml after 20 hrs by disk diffusion method. The conditions noted are these: for zone of inhibition at 50 µg/mL: NCTC 9811, 20 h, read-out: IZ.
The test system of experiment [10] is Streptococcus mutans. Description: Antimicrobial activity against Streptococcus mutans KCTC 3065 at 200 ug/ml after 20 hrs by disk diffusion method. The settings on record: for zone of inhibition at 200 µg/mL: KCTC 3065, 20 h, read-out: IZ.
Experiment [11] relates to Streptococcus sanguinis. The experiment in a line: Antimicrobial activity against Streptococcus sanguinis NCTC 9811 at 600 ug/ml after 20 hrs by disk diffusion method. The conditions noted are these: for zone of inhibition at 600 µg/mL: NCTC 9811, 20 h, read-out: IZ.
Experiment [12] relates to Streptococcus sanguinis. The experiment in a line: Antimicrobial activity against Streptococcus sanguinis NCTC 9811 at 100 ug/ml after 20 hrs by disk diffusion method. The conditions noted are these: for zone of inhibition at 100 µg/mL: NCTC 9811, 20 h, read-out: IZ.
Experiment [13] has as its system Streptococcus mutans. The experiment in a line: Antimicrobial activity against Streptococcus mutans KCTC 3065 at 100 ug/ml after 20 hrs by disk diffusion method. The settings on record: for zone of inhibition at 100 µg/mL: KCTC 3065, 20 h, read-out: IZ.
The subject of experiment [14] is Streptococcus sanguinis. Description: Antimicrobial activity against Streptococcus sanguinis NCTC 9811 at 400 ug/ml after 20 hrs by disk diffusion method. The settings on record: for zone of inhibition at 400 µg/mL: NCTC 9811, 20 h, read-out: IZ.

On to `Oc1ccc(/C=C/c2cc(O)cc3c2[C@H](c2cc(O)cc(O)c2)[C@@H](c2ccc(O)cc2)O3)cc1`, for which the MBC against Streptococcus sanguinis [1] and against Streptococcus mutans [7] was 50 µg/mL (≈ 110 µM) each time. Also, the MIC is 12.5 µg/mL (≈ 27.5 µM) in the experiment on Streptococcus sanguinis [1] and 25 µg/mL (≈ 55 µM) against Streptococcus mutans [7]. The zone of inhibition at 50 µg/mL in the experiment with Streptococcus mutans [2] and with Streptococcus sanguinis [9] was under 15 mm each time. Further, the results for the zone of inhibition at 600 µg/mL in the experiment with Streptococcus mutans [3] and in the experiment with Streptococcus sanguinis [11] were over 20 mm and 20 mm, respectively. Further, the Activity in the experiment with Streptococcus sanguinis [4] amounted to 50 µg/mL. Also, the “Concentration for total adherence inhibition” value in the experiment on Streptococcus mutans [5] was 25 µg/mL. Also, the zone of inhibition at 200 µg/mL in the experiment with Streptococcus sanguinis [6] and with Streptococcus mutans [10] was 20 mm each time. Moreover, the zone of inhibition at 400 µg/mL in the experiment on Streptococcus mutans [8] was over 20 mm; in the experiment with Streptococcus sanguinis [14], 20 mm. Further, the zone of inhibition at 100 µg/mL in the experiment with Streptococcus sanguinis [12] is 20 mm; in the experiment on Streptococcus mutans [13], under 15 mm.
For `OC[C@H]1O[C@@H](Oc2cc(O)cc(/C=C/c3ccc(O)c(O)c3)c2)[C@H](O)[C@@H](O)[C@@H]1O`, the “inhibition zone (IZ)” value in the experiment on Streptococcus mutans [2], in the experiment with Streptococcus mutans [3], in the experiment with Streptococcus sanguinis [6], in the experiment with Streptococcus mutans [8], in the experiment with Streptococcus sanguinis [9] and in the experiment with Streptococcus mutans [10] was “inactive” in each case. For the same compound, the “inhibition zone (IZ)” value in the experiment with Streptococcus sanguinis [11], in the experiment on Streptococcus sanguinis [12], with Streptococcus mutans [13] and in the experiment on Streptococcus sanguinis [14] was “inactive” throughout.
Consider `Oc1ccc(/C=C/c2cc(O)cc(O)c2)cc1` [RESVERATROL], for which the minimum bactericidal concentration (MBC) was 100 µg/mL (≈ 438 µM) against Streptococcus sanguinis [1] and 50 µg/mL (≈ 219 µM) against Streptococcus mutans [7]. Besides, the MIC in the experiment with Streptococcus sanguinis [1] worked out at 25 µg/mL (≈ 110 µM); in the experiment on Streptococcus mutans [7], 50 µg/mL (≈ 219 µM). Further, the zone of inhibition at 50 µg/mL with Streptococcus mutans [2] and in the experiment with Streptococcus sanguinis [9] was under 11 mm in each case. In addition, the zone of inhibition at 600 µg/mL in the experiment on Streptococcus mutans [3] was over 20 mm; in the experiment with Streptococcus sanguinis [11] it was 20 mm. In addition, the Activity in the experiment on Streptococcus sanguinis [4] came to 100 µg/mL. The “Concentration for total adherence inhibition” value in the experiment on Streptococcus mutans [5] turned out to be 25 µg/mL. Besides, the zone of inhibition at 200 µg/mL with Streptococcus sanguinis [6] was under 15 mm; in the experiment on Streptococcus mutans [10], 20 mm. The figures for the zone of inhibition at 400 µg/mL with Streptococcus mutans [8] and in the experiment with Streptococcus sanguinis [14] were 20 mm and under 15 mm, respectively. Besides, the values for the zone of inhibition at 100 µg/mL in the experiment with Streptococcus sanguinis [12] and with Streptococcus mutans [13] were under 11 mm and under 15 mm, respectively.
In the case of `CC[C@H]1OC(=O)[C@H](C)[C@@H](O[C@H]2C[C@@](C)(OC)[C@@H](O)[C@H](C)O2)[C@H](C)[C@@H](O[C@@H]2O[C@H](C)C[C@H](N(C)C)[C@H]2O)[C@](C)(O)C[C@@H](C)C(=O)[C@H](C)[C@@H](O)[C@]1(C)O` [ERYTHROMYCIN], in the experiment on Streptococcus sanguinis [1], the MBC amounted to 50 µg/mL (≈ 68.1 µM) and the MIC stood at 12.5 µg/mL (≈ 17 µM). Moreover, the Activity in the experiment with Streptococcus sanguinis [4] is 25 µg/mL. The “Concentration for total adherence inhibition” value in the experiment with Streptococcus mutans [5] is 0.78 µg/mL. This compound displayed an MBC in the experiment on Streptococcus mutans [7] of under 1.5 µg/mL.
Take `OC[C@H]1OC(Oc2cc(O)cc(/C=C/c3ccc(O)cc3)c2)[C@H](O)[C@@H](O)[C@@H]1O` (stereo not given in full): the “inhibition zone (IZ)” value in the experiment on Streptococcus mutans [2], with Streptococcus mutans [3], with Streptococcus sanguinis [6], with Streptococcus mutans [8], in the experiment on Streptococcus sanguinis [9] and in the experiment on Streptococcus mutans [10] was “inactive” throughout. Also, the “inhibition zone (IZ)” value in the experiment on Streptococcus sanguinis [11], in the experiment on Streptococcus sanguinis [12], in the experiment on Streptococcus mutans [13] and in the experiment with Streptococcus sanguinis [14] was “inactive” each time.
For `Oc1cc(O)cc(/C=C/c2ccc(O)c(O)c2)c1` [PICEATANNOL], the MBC against Streptococcus sanguinis [1] and with Streptococcus mutans [7] was 100 µg/mL (≈ 409 µM) in each case. Moreover, the MIC against Streptococcus sanguinis [1] and with Streptococcus mutans [7] was 50 µg/mL (≈ 205 µM) in each case. The zone of inhibition at 50 µg/mL with Streptococcus mutans [2] and with Streptococcus sanguinis [9] was under 15 mm in each case. Further, the zone of inhibition at 600 µg/mL with Streptococcus mutans [3] and in the experiment with Streptococcus sanguinis [11] was over 20 mm each time. In the experiment on Streptococcus sanguinis [4], the Activity was determined as 50 µg/mL. Also, the “Concentration for total adherence inhibition” value in the experiment with Streptococcus mutans [5] came out at 50 µg/mL. The zone of inhibition at 200 µg/mL in the experiment with Streptococcus sanguinis [6] and in the experiment on Streptococcus mutans [10] was 20 mm in each case. The zone of inhibition at 400 µg/mL in the experiment on Streptococcus mutans [8] and in the experiment on Streptococcus sanguinis [14] was over 20 mm throughout. Moreover, the zone of inhibition at 100 µg/mL in the experiment with Streptococcus sanguinis [12] and with Streptococcus mutans [13] was under 15 mm each time.
As for `Oc1ccc([C@H]2c3c(O)cc(O)cc3[C@H]3c4c(cc(O)c5c4[C@H]2[C@@H](c2ccc(O)cc2)[C@@H]5c2cc(O)cc(O)c2)O[C@@H]3c2ccc(O)cc2)cc1` [AMURESIN G], the MBC with Streptococcus sanguinis [1] worked out at 100 µg/mL (≈ 147 µM); in the experiment on Streptococcus mutans [7] it was 50 µg/mL (≈ 73.5 µM). Also, the MIC in the experiment with Streptococcus sanguinis [1] is 12.5 µg/mL (≈ 18.4 µM); with Streptococcus mutans [7], 50 µg/mL (≈ 73.5 µM). In addition, the “inhibition zone (IZ)” value in the experiment with Streptococcus mutans [2] was “inactive”. Also, the zone of inhibition at 600 µg/mL with Streptococcus mutans [3] and in the experiment on Streptococcus sanguinis [11] was under 15 mm in each case. Moreover, in the experiment with Streptococcus sanguinis [4], the Activity amounted to 50 µg/mL. The “Concentration for total adherence inhibition” value in the experiment on Streptococcus mutans [5] stood at 25 µg/mL. Moreover, the zone of inhibition at 200 µg/mL in the experiment on Streptococcus sanguinis [6] was under 15 mm; in the experiment on Streptococcus mutans [10], under 11 mm. The zone of inhibition at 400 µg/mL with Streptococcus mutans [8] and in the experiment on Streptococcus sanguinis [14] was under 15 mm throughout. For the same compound, the zone of inhibition at 50 µg/mL with Streptococcus sanguinis [9] is under 11 mm. In addition, the results for the zone of inhibition at 100 µg/mL in the experiment with Streptococcus sanguinis [12] and in the experiment with Streptococcus mutans [13] were under 15 mm and under 11 mm, respectively.
Consider `Oc1ccc(C2[C@H]3c4cc(O)cc(O)c4[C@@H](c4ccc(O)cc4)[C@@H]2c2cc(O)cc(O)c23)cc1` (stereo not given in full), for which the MBC against Streptococcus sanguinis [1] is over 400 µg/mL; with Streptococcus mutans [7], 200 µg/mL (≈ 440 µM). In addition, the results for the minimal inhibitory concentration (MIC) with Streptococcus sanguinis [1] and in the experiment on Streptococcus mutans [7] were over 400 µg/mL and 100 µg/mL (≈ 220 µM), respectively. Also, the “inhibition zone (IZ)” value in the experiment on Streptococcus mutans [2], with Streptococcus sanguinis [9] and in the experiment on Streptococcus sanguinis [12] was “inactive” each time. In addition, the figures for the zone of inhibition at 600 µg/mL in the experiment on Streptococcus mutans [3] and in the experiment with Streptococcus sanguinis [11] were 20 mm and under 15 mm, respectively. Also, the Activity with Streptococcus sanguinis [4] is over 200 µg/mL. Also, in the experiment with Streptococcus mutans [5], the “Concentration for total adherence inhibition” value is 100 µg/mL. Moreover, the zone of inhibition at 200 µg/mL was under 11 mm with Streptococcus sanguinis [6] and under 15 mm with Streptococcus mutans [10]. The zone of inhibition at 400 µg/mL with Streptococcus mutans [8] and in the experiment on Streptococcus sanguinis [14] was under 15 mm in each case. In addition, in the experiment on Streptococcus mutans [13], the zone of inhibition at 100 µg/mL is under 11 mm.

The term MBC denotes the smallest concentration meeting the test's criterion for killing. Read a low MBC as more potent killing. As usually defined, the MIC is the lowest concentration that inhibits growth of the organism. A higher MIC goes with a need for much substance.

The record behind these values is ChEMBL document CHEMBL1158512, “The antimicrobial activity of compounds from the leaf and stem of Vitis amurensis against two oral pathogens” (2010).
